# Columns and labels:
# TFEB = TFEB nuclear translocation in starved / re-stimulated HeLa cells (nuclear/cytosolic fractionation, immunofluorescence); assay type: cell-based, human; details: for TFEB nuclear translocation compared to starved media alone: EBSS media supplemented with the factor; for nuclear translocation of exogenously expressed TFEB: HeLa and HEK-293T cells transfected with TFEB-3xFLAG, treated overnight
# Procedure: Cells were seeded at 50% of confluence in 6 well dishes and serum starved overnight (ON). Normal medium was added the following day either in presence of DMSO or kinase inhibitors. Subcellular fractionation was carried out as previously reported.
# TFEB S142 = TFEB S142 phosphorylation with p-S142 phosphospecific antibody; assay type: cell-based, human; details: starved cells supplemented with normal media
# Excerpt: The mouse anti-TFEB monoclonal antibody was purchased from My Biosource catalogue No. MBS120432. To generate anti-pS142 specific antibodies, rabbits were immunized with the following peptide coupled to KLH: AGNSAPN{pSer}[…]. Following the fourth immunization, rabbits were sacrificed and the serum was collected. Non-phosphospecific antibodies were depleted from the serum by circulation through a column containing the non-phosphorylated antigene. The phosphospecific antibodies were subsequently purified using a column containing the phosphorylated peptide.
# Cells were lysed with M-PER buffer (Thermo) containing protease and phosphatase inhibitors (Sigma); nuclear/cytosolic fractions were isolated as above described. Proteins were separated by SDS-PAGE (Invitrogen; reduced NuPAGE 4-12% Bis-tris Gel, MES SDS buffer). If needed, the gel was stained using 20 ml Imperial Protein Stain (Thermo Fisher) at room temperature for 1 h and de-stained with water. Immunoblotting analysis was performed by transferring the protein onto a nitrocellulose membrane with an I-Blot (Invitrogen). […]
# primary hepatocytes = details: for upregulation / transcriptional response of TFEB target genes: hepatocytes from TFEB conditional knockout mice; for levels of P-ERK / mTOR as measured by the level of p-S6K: primary hepatocytes
# Procedure: Liver was dissociated in a petri dish, cell pellet was washed in HBSS and plated at density of 5×10^5 cells/35 mm dish and cultured in William's medium E supplemented with 10% FBS, 2 mM glutamine, 0.1 mM Insulin, 0.1 mM Dexamethasone and pen/strep. The next day, cells were treated as described in the text.
# Total RNA was extracted from tissues using TRIzol (Invitrogen) or from cells using RNAesy column (Qiagen). Reverse transcription was performed using TaqMan reverse transcription reagents (Applied Biosystems). Lysosomal and autophagic gene specific primers were previously reported^2. Autophagy gene primers and mouse primers were purchased from SABiosciences. Fold change calculations were calculated using SABiosciences' online data analysis website (http colon double forward slash www dot sabiosciences dot com forward slash per forward slash arrayanalysis dot php) which uses the DDCt method. […] Next, the DDCt value is calculated between the “control” group and the “experimental” group. Lastly, the fold change is calculated using 2^(−DDCt). Biological replicates were grouped to allow calculating the fold change values. Unpaired T-Test was used to calculate statistical significance. Asterisks in the graph indicate that the P-value was <0.05.
# [1] = Dissolution of test peptides for in vitro kinase assay; assay type: physicochemical; details: 1 mM in 50 mM HEPES pH7
# Procedure: TFEB-S-142: aa. o 117-166 of Seq Id No. 2: […] and TFEB-A-142: Seq Id No. 4, corresponding to aa. of 117-166 of Seq Id No. 2 where Ser 142 was substituted with Ala (bold): […] were synthesized by […] corp. The test peptides TFEB-A-142 and TFEB-S-142 were made up to 1 mM in 50 mM HEPES pH7. […] The kinase assay was performed at room temperature for 40 minutes at 200 μM ATP and 100 μM of each peptide, using Millipore's standard radiometric assay. All protein kinases were used at their standard KinaseProfiler™ assay concentration. Following incubation, all assays were stopped by the addition of acid and an aliquot spotted onto P30 and Filtermat A to separate products. All tests were carried out in triplicate, and the usual substrate for each protein kinase included as a control. In Vivo Gene Delivery
# mTOR = mTOR (Homo sapiens, UniProt P42345); details: recent data (41, 47, 48); cited from earlier work
# long-lived proteins = test: Degradation of long-lived proteins; assay type: cell-based; details: autophagy inhibitor added
# Procedure: Sub-confluent cells were incubated with L-U^14C-serine for 20 h and chased for 1 h with cold media to degrade short-lived proteins. Subsequently cells were incubated with either normal media or starvation media (eventually in the presence of 3-MA) for 4 h. The rate of long-lived protein degradation was calculated from the ratio of soluble radioactivity in the media to that insoluble in the acid-precipitable cell pellet.
# mTORC1 = mTORC1 activity by level of p-P70S6K (immunoblotting); assay type: cell-based, human; details: HeLa cells treated overnight
# Procedure: Cells were lysed with M-PER buffer (Thermo) containing protease and phosphatase inhibitors (Sigma); nuclear/cytosolic fractions were isolated as above described. […] Immunoblotting analysis was performed by transferring the protein onto a nitrocellulose membrane with an I-Blot (Invitrogen). The membrane was blocked with 5% non-fat milk in TBS-T buffer (TBS containing 0.05% Tween-20) and incubated with primary antibodies anti-FLAG and anti-TUBULIN (Sigma; 1:2000), anti-H3 (Cell Signaling; 1:10 000) at room temperature for 2 h whereas the following antibodies were incubated ON in 5% BSA: anti-TFEB (My Biosource; 1:1000), anti-P TFEB (1:1000) ERK1/2, p-ERK1/2, p-P70S6K, P70S6K (Cell Signaling; 1:1000). The membrane was washed three times with TBS-T buffer and incubated with alkaline phosphatase-conjugated IgG (Promega; 0.2 mg/ml) at room temperature for 1 h. The membrane was washed three times with TBS buffer and the expressed proteins were visualized by adding 10 ml Western Blue Stabilized Substrate (Promega).
molecule,measurement,setting,value
CCC(=O)N1CCN(c2ccc(-n3c(=O)ccc4cnc5ccc(-c6cnc7ccccc7c6)cc5c43)cc2C(F)(F)F)CC1 [Torin 1],TFEB subcellular localization,"TFEB; starved cells stimulated with amino-acid rich medium, Torin 1 250 nM, Rapamycin 2.5 μM",massive TFEB nuclear accumulation
same,nutrient-induced S142 phosphorylation,TFEB S142,clearly blunted
same,upregulation / transcriptional response of TFEB target genes,primary hepatocytes,significantly reduced
same,levels of P-ERK,primary hepatocytes,unaffected
same,mTOR as measured by the level of p-S6K,primary hepatocytes,inhibited mTOR
"PPPAASPGVRAGHVLSSSAGNSAPNSPMAMLHIGSNPERELDDVIDNIMR (listed as Homo sapiens) [TFEB-S-142, peptide aa]",dissolution,[1],no issue with dissolution
Nc1ccc(-c2ccc3ncc4ccc(=O)n(-c5cccc(C(F)(F)F)c5)c4c3c2)cn1 [Torin 2],mTOR inhibition,mTOR,completely inhibiting mTOR activity
insulin: growth factor supplemented to EBSS media,TFEB nuclear translocation compared to starved media alone,TFEB,significant inhibition
"Cn1cnc(N)c2ncnc1-2 [3-methyl adenine, reference compound]",TFEB-induced enhancement of long-lived protein degradation,long-lived proteins,abolished
CCN(CC)CCCC(C)Nc1ccnc2cc(Cl)ccc12 (stereo not drawn) [chloroquine],nuclear translocation of exogenously expressed TFEB,TFEB,induced nuclear translocation
same,upregulation / transcriptional response of TFEB target genes,primary hepatocytes,significantly blunted
same,expression of TFEB target genes,primary hepatocytes; hepatocytes from control mice,upregulated
same,levels of P-ERK,primary hepatocytes,unaffected
same,mTOR as measured by the level of p-S6K,primary hepatocytes,inhibited mTOR
PPPAASPGVRAGHVLSSSAGNSAPNAPMAMLHIGSNPERELDDVIDNIMR [TFEB-A-142],dissolution,[1],no issue with dissolution
CC/C=C\C=C/C(=O)N/C=C/C[C@H]1C[C@@H](O)[C@@H](C)C/C=C/Cc2cccc(O)c2C(=O)O1 [Salicylihalamide A],nuclear translocation of exogenously expressed TFEB,TFEB,induced nuclear translocation
same,mTORC1 activity as measured by level of p-P70S6K,mTORC1,inhibited
"EGF: growth factor supplemented to EBSS media (NSDSECPLSHDGYCLHDGVCMYIEALDKYACNCVVGYIGERCQYRDLKWWELR; UniProt P01133 971-1023, looked up)",TFEB nuclear translocation compared to starved media alone,TFEB,significant inhibition
LIF: cytokine supplemented to EBSS media,TFEB nuclear translocation compared to starved media alone,TFEB,Almost no effect
N#CC(=C(/N)Sc1ccccc1N)/C(C#N)=C(\N)Sc1ccccc1N [U0126],TFEB molecular weight shift induced by nutrients,TFEB,only a partial TFEB molecular weight shift
same,TFEB nuclear localization,TFEB,"resulted in TFEB nuclear localization, at level similar to starvation"

# — US9193755B1, “TFEB variants and uses thereof” (Fondazione Telethon, priority 2011, dated 2015)
